Patent US6495715B2, “Calcium channel blockers” (Warner-Lambert Company, priority 1997, dated 2002)

Legend:
N-type Ca2+ channel = molecular target: T1, N-type Ca2+ channel (Homo sapiens, UniProt Q00975); test: Measurement of N-type Ca2+ channel blocking potencies in IMR-32 cells using the fluorescent Ca2+ indicator Indo-1; type: cell-based; conditions: for IC50: K+-stimulated Ca2+ flux, 5 μM nitrendipine to block L-type channels; for inhibition at 1 µM: 1 μM compound, read-out: IMR 32 % of Blockade @ 1 μM; for inhibition at 1 µM / inhibition at 10 µM: 5 μM nitrendipine; for inhibition at 10 µM: 10 μM compound, read-out: IMR 32 % of Blockade @ 10 μM
T1 construct: host or cells: IMR-32 cells, differentiated with dibutyryl cAMP and bromodeoxyuridine
Experimental: Measurement of N-type Ca^2+ Channel Blocking Potencies of Compounds in IMR-32 Cells Using the Fluorescent Ca^2+Indicator Indo-1
IMR-32 cells are a human tumoral cell line of neural origin. […] Calcium flux into these cells may be induced by stimulation with elevated potassium concentrations. The L-channel component of calcium flux may be blocked by adding 5 μM nitrendipine. The remaining component of calcium entry into the IMR-32 cells is due to calcium flux through N-type calcium channels. Intracellular calcium concentrations are measured using the fluorescent calcium indicator Indo-1. The effect of drug concentration on calcium uptake is studied.
The IMR-32 cell line was obtained from the American Type Culture Collection (Rockville, Md.). Cells were grown in Eagle's Minimum Essential Medium with Earle's salts supplemented with 10% fetal bovine serum, 2 mM L-Gln and antibiotic/antimycotic mixture (Gibco). […] After 7 to 13 days of differentiation, cells were detached using 0.5 mM EDTA and loaded with 5 μM Indo-1 acetoxymethyl ester (Molecular Probes, Eugene, Oreg.) at 30° C. for 45 minutes. Loaded cells were washed twice, resuspended (˜10^7 cells/mL) in assay buffer (10 mM HEPES/Tris pH 7.4 in Hank's Balanced Salt Solution without bicarbonate or phenol red containing 0.5% bovine serum albumin) and kept on ice until use. Fluorescence measurements were carried out in a Photon Technology International (PTI, South Brunswick, N.J.) Model RF-F3004 spectrofluorometer with dual emission monochromators using excitation at […] and emission at 400 and 490 nm. The instrument was equipped with a thermostated cuvette holder with stirring capabilities as well as with a computer-controlled pump which allowed for reagent addition during measurement. Instrument control and data collection was done by PTI's OSCAR software running on an IBM compatible computer. Different concentrations of the test compounds (60 μL in dimethyl sulfoxide) were added to 5.94 mL of assay buffer containing approximately 3×10^6 loaded cells, and 5 μM Nitrendipine (in […] EtOH) to block L-type Ca^2+ channels. Samples were incubated for 10 minutes at 30° C. and then aliquoted into three 10×10 mm disposable acrylic cuvettes. Emission signals at 400 and 490 nm were acquired from each cuvette at 30° C. for 50 seconds. At 20 seconds after the start of reading, cells were depolarized by the addition of 160 μL of stimulation solution (1 M KCl, 68 mM CaCl2) to the cuvette via the computer-controlled pump. Ratio of dual emission signals (400 nm/490 nm), which is proportional to intracellular Ca^2+ concentration, was plotted against time, and the difference between maximal response after stimulation and basal value (before stimulation) was determined. Values obtained in this way were plotted as a function of drug concentration. IC50 values of test compounds were calculated by fitting a four-parameter logistic function to the data using the least squares method.

DBA/2 mice = test: Audiogenic seizure (anticonvulsant) test in DBA/2 mice; type: in vivo; conditions: Mus musculus, intravenous, sound-induced tonic seizures, tested 15 or 45 minutes after injection, read-out: DBA/2 mice % Protection
Experimental: In vivo Biological Protocol:
A compound of the present invention was dissolved in water using 10% (weight/volume) Emulphor (GAF Corp., Wayne, N.J.) surfactant. Substances were administered by intravenous injection into the retro-orbital venous sinus. All testing was performed 15 minutes or 45 minutes after drug injection. All the male mice, 3-4 weeks old were obtained from Jackson Laboratories Bar Harbour, Me. Immediately before anticonvulsant testing, mice were placed upon a wire mesh, 4 inches square suspended from a steel rod. The square was slowly inverted through 180 degrees and mice observed for 30 seconds. Any mouse falling from the wire mesh was scored as ataxia.
Mice were placed into an enclosed acrylic plastic chamber (21 cm height, approximately 30 cm diameter) with a high-frequency speaker (4 cm diameter) in the center of the top lid. An audio signal generator (Protek model B-810) was used to produce a continuous sinusoidal tone that was swept linearly in frequency between 8 kHz and 16 kHz once each 10 msec. The average sound pressure level (SPL) during stimulation was approximately 100 dB at the floor of the chamber. Mice were placed within the chamber and allowed to acclimatize for 1 minute. DBA/2 mice in the vehicle-treated group responded to the sound stimulus (applied until tonic extension occurred, or for a maximum of 60 sec) with a characteristic seizure sequence consisting of wild running followed by clonic seizures, and later by tonic extension, and finally by respiratory arrest and death in 80% or more of the mice. In vehicle-treated mice, the entire sequence of seizures to respiratory arrest lasts approximately 15-20 seconds.
The incidence of all the seizure phases in the drug-treated and vehicle-treated mice was recorded, and the occurrence of tonic seizures were used for calculating anticonvulsant ED50 values by probit analysis. Mice were used only once for testing at each time and dose point.

T1 sequence (Q00975 whole entry): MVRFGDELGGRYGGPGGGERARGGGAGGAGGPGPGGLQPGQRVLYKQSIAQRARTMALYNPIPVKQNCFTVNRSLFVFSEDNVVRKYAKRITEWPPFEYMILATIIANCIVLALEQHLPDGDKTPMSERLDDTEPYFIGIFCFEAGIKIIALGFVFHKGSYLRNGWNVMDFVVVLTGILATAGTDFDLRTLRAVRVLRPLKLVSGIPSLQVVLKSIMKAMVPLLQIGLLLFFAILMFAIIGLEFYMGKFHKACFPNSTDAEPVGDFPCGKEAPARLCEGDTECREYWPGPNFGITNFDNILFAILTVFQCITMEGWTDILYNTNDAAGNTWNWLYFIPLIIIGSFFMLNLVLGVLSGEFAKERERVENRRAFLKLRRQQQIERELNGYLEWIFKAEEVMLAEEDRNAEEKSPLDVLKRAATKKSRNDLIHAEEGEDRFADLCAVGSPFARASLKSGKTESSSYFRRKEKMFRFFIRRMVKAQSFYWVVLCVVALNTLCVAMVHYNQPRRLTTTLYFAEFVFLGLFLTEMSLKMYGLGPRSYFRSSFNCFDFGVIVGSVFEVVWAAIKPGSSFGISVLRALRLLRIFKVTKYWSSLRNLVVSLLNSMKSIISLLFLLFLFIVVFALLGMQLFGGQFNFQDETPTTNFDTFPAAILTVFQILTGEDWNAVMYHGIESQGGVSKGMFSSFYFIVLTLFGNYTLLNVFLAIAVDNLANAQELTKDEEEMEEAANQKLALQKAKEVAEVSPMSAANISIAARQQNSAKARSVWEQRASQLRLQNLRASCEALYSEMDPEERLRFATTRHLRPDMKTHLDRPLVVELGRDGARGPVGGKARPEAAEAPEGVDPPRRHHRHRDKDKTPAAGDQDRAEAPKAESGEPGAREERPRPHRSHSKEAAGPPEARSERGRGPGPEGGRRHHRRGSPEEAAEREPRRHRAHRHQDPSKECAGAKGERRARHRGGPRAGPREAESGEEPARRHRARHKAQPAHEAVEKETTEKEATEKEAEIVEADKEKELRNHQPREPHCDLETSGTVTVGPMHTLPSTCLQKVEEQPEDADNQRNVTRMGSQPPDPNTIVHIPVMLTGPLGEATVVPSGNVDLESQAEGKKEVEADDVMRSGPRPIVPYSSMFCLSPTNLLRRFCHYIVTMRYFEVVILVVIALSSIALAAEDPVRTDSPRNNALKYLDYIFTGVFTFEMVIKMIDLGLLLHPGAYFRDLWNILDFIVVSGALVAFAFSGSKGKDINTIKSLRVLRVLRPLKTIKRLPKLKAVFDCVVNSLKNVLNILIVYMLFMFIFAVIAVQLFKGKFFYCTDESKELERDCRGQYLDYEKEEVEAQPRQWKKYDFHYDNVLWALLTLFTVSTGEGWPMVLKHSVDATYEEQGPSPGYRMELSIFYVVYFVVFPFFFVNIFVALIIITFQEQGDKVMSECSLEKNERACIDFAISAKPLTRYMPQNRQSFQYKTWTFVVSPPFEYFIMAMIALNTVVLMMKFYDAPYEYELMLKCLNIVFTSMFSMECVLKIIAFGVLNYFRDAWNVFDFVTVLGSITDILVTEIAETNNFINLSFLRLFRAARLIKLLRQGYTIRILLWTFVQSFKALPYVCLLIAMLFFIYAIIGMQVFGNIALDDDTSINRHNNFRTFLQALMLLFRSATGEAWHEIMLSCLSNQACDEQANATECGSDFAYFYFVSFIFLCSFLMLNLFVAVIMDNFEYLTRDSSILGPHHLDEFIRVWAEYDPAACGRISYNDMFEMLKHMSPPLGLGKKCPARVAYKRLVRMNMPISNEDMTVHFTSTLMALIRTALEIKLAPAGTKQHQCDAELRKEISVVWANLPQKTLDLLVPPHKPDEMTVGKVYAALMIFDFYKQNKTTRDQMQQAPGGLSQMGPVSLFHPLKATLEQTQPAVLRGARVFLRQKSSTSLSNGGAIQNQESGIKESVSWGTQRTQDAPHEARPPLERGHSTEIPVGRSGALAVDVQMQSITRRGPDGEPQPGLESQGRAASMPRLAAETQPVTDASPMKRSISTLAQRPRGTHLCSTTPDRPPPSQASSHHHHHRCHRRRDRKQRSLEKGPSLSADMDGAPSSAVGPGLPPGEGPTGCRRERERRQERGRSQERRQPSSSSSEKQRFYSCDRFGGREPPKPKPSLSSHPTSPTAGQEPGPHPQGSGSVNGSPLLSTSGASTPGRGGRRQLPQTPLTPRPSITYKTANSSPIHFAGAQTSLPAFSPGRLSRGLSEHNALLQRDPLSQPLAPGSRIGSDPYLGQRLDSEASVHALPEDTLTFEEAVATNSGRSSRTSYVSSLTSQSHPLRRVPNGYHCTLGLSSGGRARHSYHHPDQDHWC
T1 sequence (P54289 25-956 partner limits assumed): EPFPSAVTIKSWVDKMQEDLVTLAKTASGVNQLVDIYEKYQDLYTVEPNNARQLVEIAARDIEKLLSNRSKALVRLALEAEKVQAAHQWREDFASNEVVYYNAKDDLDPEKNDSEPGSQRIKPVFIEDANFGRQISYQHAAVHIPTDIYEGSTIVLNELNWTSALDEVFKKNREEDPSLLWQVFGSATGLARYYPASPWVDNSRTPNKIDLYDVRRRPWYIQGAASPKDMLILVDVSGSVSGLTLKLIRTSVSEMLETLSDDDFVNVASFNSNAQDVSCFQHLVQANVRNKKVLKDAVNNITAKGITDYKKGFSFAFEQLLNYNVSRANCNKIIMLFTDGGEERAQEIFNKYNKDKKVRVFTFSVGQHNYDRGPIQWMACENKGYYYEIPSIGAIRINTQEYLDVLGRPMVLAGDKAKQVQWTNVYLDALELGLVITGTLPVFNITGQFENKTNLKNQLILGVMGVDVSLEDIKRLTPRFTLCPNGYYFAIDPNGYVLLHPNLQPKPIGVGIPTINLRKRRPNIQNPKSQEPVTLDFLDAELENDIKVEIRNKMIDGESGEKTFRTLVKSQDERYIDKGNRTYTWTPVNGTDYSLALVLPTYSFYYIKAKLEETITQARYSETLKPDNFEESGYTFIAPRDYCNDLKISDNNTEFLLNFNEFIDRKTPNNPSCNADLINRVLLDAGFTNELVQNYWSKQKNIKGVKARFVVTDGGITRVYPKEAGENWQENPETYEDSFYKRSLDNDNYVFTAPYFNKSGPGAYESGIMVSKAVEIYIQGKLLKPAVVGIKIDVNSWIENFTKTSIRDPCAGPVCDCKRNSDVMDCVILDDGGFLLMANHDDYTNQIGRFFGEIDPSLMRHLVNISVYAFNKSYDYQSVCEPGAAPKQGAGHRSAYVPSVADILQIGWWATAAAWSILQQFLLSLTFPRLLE
T1 sequence (P54289 957-1103 partner limits assumed): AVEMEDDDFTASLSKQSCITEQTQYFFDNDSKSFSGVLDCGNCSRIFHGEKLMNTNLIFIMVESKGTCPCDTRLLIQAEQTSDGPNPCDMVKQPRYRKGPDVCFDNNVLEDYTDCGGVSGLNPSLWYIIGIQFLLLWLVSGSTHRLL
T1 sequence (Q02641 whole entry partner): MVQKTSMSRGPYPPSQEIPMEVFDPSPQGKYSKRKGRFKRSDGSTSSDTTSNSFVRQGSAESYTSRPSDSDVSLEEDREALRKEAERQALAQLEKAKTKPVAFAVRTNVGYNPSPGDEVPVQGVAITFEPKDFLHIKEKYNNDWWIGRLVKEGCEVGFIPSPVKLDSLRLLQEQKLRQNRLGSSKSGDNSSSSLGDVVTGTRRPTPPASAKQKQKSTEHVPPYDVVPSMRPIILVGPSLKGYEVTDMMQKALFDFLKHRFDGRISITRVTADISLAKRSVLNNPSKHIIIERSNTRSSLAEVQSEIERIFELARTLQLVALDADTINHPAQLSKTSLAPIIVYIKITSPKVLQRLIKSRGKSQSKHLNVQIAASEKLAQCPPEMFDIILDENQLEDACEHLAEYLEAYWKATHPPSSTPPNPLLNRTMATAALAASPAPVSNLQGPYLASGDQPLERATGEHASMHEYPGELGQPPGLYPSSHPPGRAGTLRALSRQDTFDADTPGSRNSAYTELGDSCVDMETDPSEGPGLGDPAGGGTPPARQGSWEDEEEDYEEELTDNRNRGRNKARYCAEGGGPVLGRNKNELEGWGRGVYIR

In the case of CC(C)=CCN(CC(C)(C)NC(=O)[C@H](CC(C)C)NC(=O)N1CCCCCC1)c1ccc(OCc2ccccc2)cc1 [Example 1], the IC50 (N-type Ca2+ channel) is reported as 260 nM and the responders at 30 mg/kg (DBA/2 mice) is reported as 60%.
Compound CC(C)=CCN(CC(C)(C)NC(=O)[C@H](CC(C)C)N(C)CC=C(C)C)c1ccc(OCc2ccccc2)cc1 [Example 10, (S)-4-Methyl-2-[methyl-(3-methyl-but-2-enyl)-amino]-pentanoic acid {2-[(4-benzyloxy-phenyl)-(3-methyl-but-2-enyl)-amino]-1,1-dimethyl-ethyl}-amide] has an inhibition at 1 µM (N-type Ca2+ channel) of 54%, an inhibition at 10 µM (N-type Ca2+ channel) of 82% and a responders at 30 mg/kg (DBA/2 mice) of 80%.
In the case of CC(C)=CCN(c1ccc(OCc2ccccc2)cc1)C1CCN(C(=O)[C@@H](N)CC(C)C)CC1 [Example 20, (S)-2-Amino-1-{4-[(4-benzyloxy-phenyl)-(3-methyl-but-2-enyl)-amino]-piperidin-1-yl}-4-methyl-pentan-1-one], the IC50 (N-type Ca2+ channel) is reported as 2400 nM and the responders at 10 mg/kg (DBA/2 mice) is reported as 100%.
CCC(C)[C@H](N)C(=O)N1CCC(N(CC=C(C)C)c2ccc(OCc3ccccc3)cc2)CC1 (stereo partly drawn) [Example 22, (S)-2-Amino-1-{4-[(4-benzyloxy-phenyl)-(3-methyl-but-2-enyl)-amino]-piperidin-1-yl}-3-methyl-pentan-1-one] was tested, and the inhibition at 1 µM (N-type Ca2+ channel) was 39%, the inhibition at 10 µM (N-type Ca2+ channel) was 90% and the responders at 10 mg/kg (DBA/2 mice) was 100%.
With CC(C)=CCN(c1ccc(OCc2ccccc2)cc1)C1CCN(C(=O)[C@H](CC(C)C)N(C)C)CC1 [Example 23, (S)-1-{4-[(4-Benzyloxy-phenyl)-(3-methyl-but-2-enyl)-amino]-piperidin-1-yl}-2-dimethylamino-4-methyl-pentan-1-one] the IC50 (N-type Ca2+ channel) was 650 nM and the responders at 10 mg/kg (DBA/2 mice) was 40%.
For CCN(c1ccc(OCc2ccccc2)cc1)C1CCN(C(=O)[C@H](CC(C)C)NC(=O)N2CCCCCC2)CC1 [Example 30, (S)-Azepane-1-carboxylic acid (1-{4-[(4-benzyloxy-phenyl)-ethyl-amino]-piperidine-1-carbonyl}-3-methyl-butyl)-amide], the IC50 (N-type Ca2+ channel) was 830 nM.
In the case of CC(C)C[C@H](NC(=O)N1CCCCCC1)C(=O)N1CCC(N(Cc2ccccc2)c2ccc(OCc3ccccc3)cc2)CC1 [Example 31, (S)-Azepane-1-carboxylic acid (1-{4-[benzyl-(4-benzyloxy-phenyl)-amino]-piperidine-1-carbonyl}-3-methyl-butyl)-amide], the IC50 (N-type Ca2+ channel) is reported as 430 nM.
With CC(C)=CCN(c1ccc(NC(=O)OCc2ccccc2)cc1)C1CCN(C(=O)[C@H](CC(C)C)NC(=O)N2CCCCCC2)CC1 [Example 33, (S)-{4-[(1-{2-[(Azepane-1-carbonyl)-amino]-4-methyl-pentanoyl}-piperidin-4-yl)-(3-methyl-but-2-enyl)-amino]-phenyl}-carbamic acid benzyl ester] the IC50 (N-type Ca2+ channel) was 170 nM.
CC(C)CCN(c1ccc(NC(=O)OCc2ccccc2)cc1)C1CCN(C(=O)[C@H](CC(C)C)NC(=O)N2CCCCCC2)CC1 [Example 34, (S)-{4-[(1-{2-[(Azepane-1-carbonyl)-amino]-4-methyl-pentanoyl}-piperidin-4-yl)-(3-methyl-butyl)-amino]-phenyl}-carbamic acid benzyl ester] gave an inhibition at 1 µM (N-type Ca2+ channel) of 83%.
In the case of CC(C)CCN(c1ccc(NCC2CCCCC2)cc1)C1CCN(C(=O)[C@H](CC(C)C)NC(=O)N2CCCCCC2)CC1 [Example 37, (S)-Azepane-1-carboxylic acid (1-{4-[[4-(Cyclohexylmethyl-amino)-phenyl]-(3-methyl-butyl)-amino]-piperidine-1-carbonyl}-3-methyl-butyl)-amide], the IC50 (N-type Ca2+ channel) is reported as 290 nM.
For CC(C)CCN(c1ccc(NCc2ccccc2)cc1)C1CCN(C(=O)[C@H](CC(C)C)NC(=O)N2CCCCCC2)CC1 [Example 39, (S)-Azepane-1-carboxylic acid (1-{4-[(4-benzylamino-phenyl)-(3-methyl-butyl)-amino]-piperidine-1-carbonyl}-3-methyl-butyl)-amide], the IC50 (N-type Ca2+ channel) was 400 nM.
CC(C)CCN(c1ccc(NCc2ccccn2)cc1)C1CCN(C(=O)[C@H](CC(C)C)NC(=O)N2CCCCCC2)CC1 [Example 40] was tested, and the IC50 (N-type Ca2+ channel) was 1100 nM.
